Values quoted from earlier work as cited in US20210196697A1, “COMBINATION THERAPIES FOR TREATING BIPOLAR DISORDER AND ADHD, AND METHODS FOR USING THE SAME” (PsychNostics, LLC, priority 2017, published 2021).

Tests used:
[1] = system: SK-N-SH Neuroblastoma Cells; details: addition of carbachol to [3H]cytidine-prelabeled cells

Compound: C[N+](C)(C)CCOC(N)=O [carbachol]
- accumulation of labeled CDP-DAG [1]: four to fivefold increase

Compound: [Li] [Li, lithium]
- therapeutic level (lithium in BD patients): around 1.2 mM
- toxic level (lithium in BD patients): about 2 mM

Compound: COC(=O)C(c1ccccc1)C1CCCCN1 (centres unmarked) [MPH, methylphenidate]
- effect on MPR (ADHD patients): reduces the MPR in a dose dependant manner

Compound: CN1CCN(C2=Nc3cc(Cl)ccc3Nc3ccccc32)CC1 [clozapine]
- therapeutic level / therapeutic reference range (serum / blood plasma): 200 to 1000 ng/mL
